Experimental data taken from patent publication US4504480A, “Pentacyclic compounds” (Beecham Group p.l.c., priority 1982, dated 1985).

Target: T1, α2-adrenoceptors (Rattus norvegicus, UniProt P22909)
T1 construct: isolated rat-brain synaptic membrane fragments; from tissue; host or cells: rat brain, synaptic membrane fragments
T1 sequence (P22909 1-465): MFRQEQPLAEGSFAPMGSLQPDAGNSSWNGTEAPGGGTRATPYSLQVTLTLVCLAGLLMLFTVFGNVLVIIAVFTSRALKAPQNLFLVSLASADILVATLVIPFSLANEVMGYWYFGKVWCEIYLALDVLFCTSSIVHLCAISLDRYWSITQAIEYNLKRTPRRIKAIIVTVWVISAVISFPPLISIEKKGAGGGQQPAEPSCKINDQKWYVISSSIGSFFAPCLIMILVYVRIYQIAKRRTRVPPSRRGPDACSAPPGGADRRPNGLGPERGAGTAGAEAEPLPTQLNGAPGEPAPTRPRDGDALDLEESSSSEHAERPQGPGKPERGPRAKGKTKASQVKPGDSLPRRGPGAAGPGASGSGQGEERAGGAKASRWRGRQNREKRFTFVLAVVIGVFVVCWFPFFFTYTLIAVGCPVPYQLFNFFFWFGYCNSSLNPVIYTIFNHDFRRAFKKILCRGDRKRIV
Test: inhibition of [3H]-clonidine binding to isolated rat-brain synaptic membrane fragments
Conditions: from IC50 by Cheng-Prusoff equation
Description: Blockade of presynaptic α2 -adrenoceptors on noradrenergic neurones effects an increase in intrasynaptic noradrenaline, and thus in the central nervous system could be expected to have an antidepressant effect. [^3 H]-Clonidine binds to α2 -adrenoceptor sites and inhibition of this binding correlates with the blockade of α2 -adrenoceptors. In vitro inhibition by some of the present compounds of the binding of [^3 H]-clonidine to isolated rat-brain synaptic membrane fragments was therefore determined to provide an indication of antidepressant activity. This was carried out using standard biochemical binding study techniques, by the method of Maggi et al, Eur. J. Pham. 1980, 61, 91. IC50 values were obtained from log [dose] against % inhibition curves; Ki values were determined using the Cheng-Prusoff equation.

SMILES	Ki [nM]
CN1CCN2c3ccccc3Cc3cccc4c3[C@@H]2[C@H]1C4 (relative stereo) [Example I, trans-12-Methyl-1,10,11,12,12a,12b-hexahydro-5H-9b,12-diazabenzo[5,6]cyclohepta[1,2,3,4-def]fluorene]	88
CN1CCN2c3ccccc3Cc3cccc4c3[C@@H]2[C@H]1CC4 (relative stereo) [Example II, trans-13-methyl-1,2,6,11,12,13,13a,13b-octahydro-10b13-diazabenzo[gh]pleiadene]	169
